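Protocol summary: plate cells (96-well), add compound at 5 concentrations, incubate 48 h, interpolate endpoints linearly. GI50 = concentration required for 50% inhibition of growth.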 Active and inactive are the calls of the source. Cut-off read from the data, not from the text of the source: active = GI50 up to about 1.1 µM and inactive = higher.
Columns and labels:
Assay in all cases: NCI tumour cell line growth inhibition, 48 h
SNB-19 = tested on: SNB-19
EKVX = tested on: EKVX
Hs-578T = tested on: Hs-578T
OVCAR-8 = tested on: OVCAR-8
HCT-116 = tested on: HCT-116
M14 = tested on: M14
SK-MEL-5 = tested on: SK-MEL-5
IGROV-1 = tested on: IGROV-1
OVCAR-3 = tested on: OVCAR-3
PC-3 = tested on: PC-3
MDA-MB-231 = tested on: MDA-MB-231
HT-29 = tested on: HT-29
RXF 393 = tested on: RXF 393
DU-145 = tested on: DU-145
HOP-92 = tested on: HOP-92
HOP-62 = tested on: HOP-62
A498 = tested on: A498
SNB-75 = tested on: SNB-75
UO-31 = tested on: UO-31
SK-MEL-28 = tested on: SK-MEL-28
SF-268 = tested on: SF-268
CAKI-1 = tested on: CAKI-1
COLO 205 = tested on: COLO 205
HCC 2998 = tested on: HCC 2998
MOLT-4 = tested on: MOLT-4
SK-OV-3 = tested on: SK-OV-3
SF-539 = tested on: SF-539
NCI-H460 = tested on: NCI-H460
OVCAR-4 = tested on: OVCAR-4
UACC-257 = tested on: UACC-257
OVCAR-5 = tested on: OVCAR-5
K562 = tested on: K562
HCT-15 = tested on: HCT-15
Malme-3M = tested on: Malme-3M
U-251 = tested on: U-251
BT-549 = tested on: BT-549
KM12 = tested on: KM12
NCI-H23 = tested on: NCI-H23
HL-60 = tested on: HL-60
NCI/ADR-RES = tested on: NCI/ADR-RES
NCI-H226 = tested on: NCI-H226
SF-295 = tested on: SF-295
RPMI-8226 = tested on: RPMI-8226
LOX IMVI = tested on: LOX IMVI
SK-MEL-2 = tested on: SK-MEL-2
MDA-N = tested on: MDA-N
MCF7 = tested on: MCF7
786-0 = tested on: 786-0
SN12C = tested on: SN12C
CCRF-CEM = tested on: CCRF-CEM
UACC-62 = tested on: UACC-62
NCI-H522 = tested on: NCI-H522
A549 = tested on: A549
SW-620 = tested on: SW-620
ACHN = tested on: ACHN
MDA-MB-435 = tested on: MDA-MB-435
SR = tested on: SR
TK-10 = tested on: TK-10
T47D = tested on: T47D

SMILES: COc1cc(C2c3cc4c(cc3OC(N3CCCCC3)C2C)OCO4)cc(OC)c1O (stereo not drawn)
- GI50 (SNB-19): 16.3 µM (inactive)
- GI50 (EKVX): 26.1 µM (inactive)
- GI50 (Hs-578T): 7.53 µM (inactive)
- GI50 (OVCAR-8): 13.4 µM (inactive)
- GI50 (HCT-116): 4.59 µM (inactive)
- GI50 (M14): 9.42 µM (inactive)
- GI50 (SK-MEL-5): 5.7 µM (inactive)
- GI50 (IGROV-1): 9.98 µM (inactive)
- GI50 (OVCAR-3): 6.12 µM (inactive)
- GI50 (PC-3): 7.91 µM (inactive)
- GI50 (MDA-MB-231): 9.38 µM (inactive)
- GI50 (HT-29): 8.75 µM (inactive)
- GI50 (RXF 393): 14.5 µM (inactive)
- GI50 (DU-145): 19.5 µM (inactive)
- GI50 (HOP-92): 15 µM (inactive)
- GI50 (HOP-62): 6.78 µM (inactive)
- GI50 (A498): 10.9 µM (inactive)
- GI50 (SNB-75): 2.96 µM (inactive)
- GI50 (UO-31): 15 µM (inactive)
- GI50 (SK-MEL-28): 9.89 µM (inactive)
- GI50 (SF-268): 13.8 µM (inactive)
- GI50 (CAKI-1): 12 µM (inactive)
- GI50 (COLO 205): 17.7 µM (inactive)
- GI50 (HCC 2998): 12.2 µM (inactive)
- GI50 (MOLT-4): 6.12 µM (inactive)
- GI50 (SK-OV-3): 5.89 µM (inactive)
- GI50 (SF-539): 9.64 µM (inactive)
- GI50 (NCI-H460): 6.64 µM (inactive)
- GI50 (OVCAR-4): 17.3 µM (inactive)
- GI50 (UACC-257): 13.4 µM (inactive)
- GI50 (OVCAR-5): 20.1 µM (inactive)
- GI50 (K562): 4.06 µM (inactive)
- GI50 (HCT-15): 11.6 µM
- GI50 (Malme-3M): 4.36 µM (inactive)
- GI50 (U-251): 9.71 µM (inactive)
- GI50 (BT-549): 10.5 µM (inactive)
- GI50 (KM12): 5.89 µM (inactive)
- GI50 (NCI-H23): 18.7 µM (inactive)
- GI50 (HL-60): 4.15 µM (inactive)
- GI50 (NCI/ADR-RES): 4.57 µM (inactive)
- GI50 (NCI-H226): 21.9 µM (inactive)
- GI50 (SF-295): 3.7 µM (inactive)
- GI50 (RPMI-8226): 9.35 µM (inactive)
- GI50 (LOX IMVI): 9.77 µM (inactive)
- GI50 (SK-MEL-2): 7.73 µM (inactive)
- GI50 (MDA-N): 2.14 µM (inactive)
- GI50 (MCF7): 5.33 µM (inactive)
- GI50 (786-0): 8.77 µM (inactive)
- GI50 (SN12C): 11.4 µM (inactive)
- GI50 (CCRF-CEM): 3.4 µM (inactive)
- GI50 (UACC-62): 4.23 µM (inactive)
- GI50 (NCI-H522): 3.67 µM (inactive)
- GI50 (A549): 10.7 µM (inactive)
- GI50 (SW-620): 5.31 µM (inactive)
- GI50 (ACHN): 8.57 µM (inactive)
- GI50 (MDA-MB-435): 2.21 µM (inactive)
- GI50 (SR): 4.82 µM (inactive)
- GI50 (TK-10): 16.4 µM (inactive)
- GI50 (T47D): 11.7 µM (inactive)

SMILES: CC(C)=CC(Cc1ccccc1)S(=O)(=O)c1nc2ccccc2s1 (stereo not drawn)
- GI50 (SNB-19): 17.4 µM (inactive)
- GI50 (EKVX): 19.6 µM (inactive)
- GI50 (Hs-578T): 29.6 µM (inactive)
- GI50 (OVCAR-8): 15.4 µM (inactive)
- GI50 (HCT-116): 14 µM (inactive)
- GI50 (M14): 12.5 µM (inactive)
- GI50 (SK-MEL-5): 13.6 µM (inactive)
- GI50 (IGROV-1): 19.7 µM (inactive)
- GI50 (OVCAR-3): 15.3 µM (inactive)
- GI50 (PC-3): 16.7 µM (inactive)
- GI50 (MDA-MB-231): 19.8 µM (inactive)
- GI50 (HT-29): 19.3 µM (inactive)
- GI50 (RXF 393): 19.7 µM (inactive)
- GI50 (DU-145): 17.7 µM (inactive)
- GI50 (HOP-92): 16.6 µM (inactive)
- GI50 (HOP-62): 28.8 µM (inactive)
- GI50 (A498): 19.9 µM (inactive)
- GI50 (SNB-75): 16.6 µM (inactive)
- GI50 (UO-31): 13.8 µM (inactive)
- GI50 (SK-MEL-28): 16.1 µM (inactive)
- GI50 (SF-268): 15.6 µM (inactive)
- GI50 (CAKI-1): 4.05 µM (inactive)
- GI50 (COLO 205): 17 µM (inactive)
- GI50 (HCC 2998): 19.2 µM (inactive)
- GI50 (MOLT-4): 2.98 µM (inactive)
- GI50 (SK-OV-3): 22.4 µM (inactive)
- GI50 (SF-539): 16.2 µM (inactive)
- GI50 (NCI-H460): 21.3 µM (inactive)
- GI50 (OVCAR-4): 15.9 µM (inactive)
- GI50 (UACC-257): 21 µM (inactive)
- GI50 (OVCAR-5): 19.2 µM (inactive)
- GI50 (K562): 12.6 µM (inactive)
- GI50 (HCT-15): 17.7 µM
- GI50 (Malme-3M): 14.5 µM (inactive)
- GI50 (U-251): 15.9 µM (inactive)
- GI50 (BT-549): 14.6 µM (inactive)
- GI50 (KM12): 18.7 µM (inactive)
- GI50 (NCI-H23): 13.5 µM (inactive)
- GI50 (HL-60): 2.84 µM (inactive)
- GI50 (NCI/ADR-RES): 19.7 µM (inactive)
- GI50 (NCI-H226): 13.3 µM (inactive)
- GI50 (SF-295): 26.6 µM (inactive)
- GI50 (RPMI-8226): 10.5 µM (inactive)
- GI50 (LOX IMVI): 2.69 µM (inactive)
- GI50 (SK-MEL-2): 13.1 µM (inactive)
- GI50 (MDA-N): 8.13 µM (inactive)
- GI50 (MCF7): 14.7 µM (inactive)
- GI50 (786-0): 14.6 µM (inactive)
- GI50 (SN12C): 12 µM (inactive)
- GI50 (CCRF-CEM): 2.37 µM (inactive)
- GI50 (UACC-62): 17.2 µM (inactive)
- GI50 (NCI-H522): 11.3 µM (inactive)
- GI50 (A549): 23.4 µM (inactive)
- GI50 (SW-620): 18.7 µM (inactive)
- GI50 (ACHN): 18.8 µM (inactive)
- GI50 (MDA-MB-435): 11 µM (inactive)
- GI50 (SR): 1.98 µM (inactive)
- GI50 (TK-10): 20 µM (inactive)
- GI50 (T47D): 23.6 µM (inactive)

Reference: ChEMBL document CHEMBL1201862, “PubChem BioAssay data set” (2004)
